Assay results reported in US5466716A, “Liposomal trimethylsphingosine” (The Biomembrane Institute, priority 1994, dated 1995).
“Also recorded” adds a separate entry of the source.

Assays:
[1] = test system: platelets; test: platelet aggregation; type: cell-based, human
Procedure: FIGS. 7A and 7B depict the effect of N,N,N-trimethylsphingosine (TMS) on platelet aggregation. A 0.45 ml aliquot of human platelet suspension (3-5×10^5 platelets per μl of Tyrode's buffer) was incubated with sphingosine or TMS for 2 minutes. Then platelet aggregation was induced by the addition of either γ-thrombin (FIG. 7A) or adenosine diphosphate (ADP) (FIG. 7B) in 0.05 ml. The degree of aggregation was determined in an aggregometer and the data analyzed with an integrated computer (Kyoto Daiichi Kagaku Co. Ltd.).
FIG. 8 depicts further the dose response of platelet aggregation by sphingoid. Aggregation of the platelets was induced with 10 nM γ-thrombin.
Platelets were isolated from platelet-rich plasma (purchased from the Oregon Red Cross, Portland, Oreg. Contaminating erythrocytes were removed by centrifugation (80×g for 10 minutes). Platelets were obtained by centrifugation (300×g for 10 minutes), washed once in Tyrodes's buffer (pH 6.5) containing 22 mM trisodium citrate and 0.35% (w/v) BSA and resuspended in the same buffer to obtain a concentration of 1-2×10^9 platelets/ml. All procedures were performed at room temperature.
A suspension of platelets (3.5×10^8 /ml) in Tyrode's buffer was preincubated with various inhibitor compounds (H-7 is [1-(5-isoquinolinylsulfonyl)-2-methylpiperazine, a synthetic protein kinase-C inhibitor purchased from Seikagaku America Inc., St. Petersburg, Fla.], calphostin-C [a synthetic protein kinase-C inhibitor obtained from Dr. Saitoh, Kyowa Hakko Co., Ltd., Machida, Tokyo, Japan], sphingosine [purchased from Sigma, St. Louis, Mo.] and dimethylsphingosine and trimethylsphingosine [synthesized according to Igarashi et al., Biochem., 28, 6796, 1989]) followed by addition of thrombin or ADP (both purchased from Sigma). Platelet aggregation was evaluated by transmittance change using an aggregometer (Chrono-log Corp., Havertown, Pa.) equipped with a computer analyzer.

[2] = test system: GMP-140; test: GMP-140 expression on platelets (flow cytometry, mAb AC1.2); type: cell-based, human
Procedure: FIGS. 11A and 11B depict results of representative experiments assessing the percentage of platelets capable of binding an anti-GMP-140 antibody following exposure to various agents. The percentage binding activity was determined in a flow cytometer. SPN is sphingosine; H-7 is 1-(5-isoquinolinylsulfonyl)-2-methylpiperazine; Cal is calphostin-C; TMS is trimethylsphingosine; and DMS is dimethylsphingosine.
GMP-140 expression was determined by (i) flow cytometry with mAb AC1.2, which is directed to GMP-140 and obtained from Dr. Furie (Tufts Univ. Sch. Med., Boston, Mass.) and (ii) adhesion of HL60 cells on platelet-coated solid phase.
A suspension of platelets (1×10^8 /ml) in Tyrode's buffer was preincubated with inhibitor at pH 7.2, 37° C., for 5 minutes, then supplemented with activator, either thrombin (final concentration 1 U/ml) or phorbol 12-myristate 13-acetate (PMA (final concentration 10^-7 M), and the mixture was incubated at 37° C. for 10 minutes. Platelets were fixed with an equal volume of 2% (w/v) paraformaldehyde in PBS and washed 2 times with PBS containing 1% (w/v) BSA.
The paraformaldehyde-fixed platelets were incubated with 50 μl of mAb AC1.2 (2.5 μg/ml) at room temperature for 30 minutes. Platelets were washed 2 times with PBS containing 1% (w/v) BSA, supplemented with 50 μl of fluorescein isothiocyanate-labeled goat anti-mouse Ig (purchased from Tago Co., Burlingame, Calif.), incubated at room temperature for 30 minutes and again washed 2 times with PBS containing 1% (w/v) BSA. As a negative control, paraformaldehyde-fixed platelets were incubated with mouse IgG instead of mAb AC1.2 and treated as described above.
The platelets were analyzed in an Epics flow cytometer (Coulter Corp.) with suitable gating. To calculate the inhibitory effect of various reagents, the mean fluorescence intensity of resting platelets (obtained on incubation of platelets without activator) was subtracted from the value for the activated platelet sample.

[3] = test system: protein kinase-C; details: cited from earlier work
[4] = test system: neutrophils; test: neutrophil superoxide production (cytochrome C reduction); type: cell-based, human
Procedure: FIGS. 13A and 13B depict the effect of various reagents on neutrophil function. In FIG. 13A, the effect of TMS on O2 production was determined by monitoring the superoxide-mediated reduction of cytochrome C (Clifford, Meth. Enz., 105, 393, 1981) by 10^6 neutrophils/ml at OD550 and an extinction coefficient of 21000/M/cm in a Beckman DU-50 spectrophotometer. The cells were preincubated for 10 minutes at room temperature with the noted concentrations of TMS prior to stimulation with 1 μM PMA (time 0).
Human neutrophils were obtained from normal male adults. Heparinized peripheral blood was mixed gently with an equal amount of 1% dextran solution in PBS in a 60 ml injection syringe. The mixture was allowed to sit vertically for 60 to 90 minutes at 37° C. The upper phase, which is rich in white blood cells, was mounted gently on the same volume of Ficoll-Paque (Pharmacia LKB, Uppsala, Sweden) in Falcon 2095 plastic test tubes (Becton Dickinson Labware, Lincoln Park, N.J.). Centrifugation at 450 g for 30 min at 4° C. brought the neutrophils to the bottom of the tubes. The upper phase and interface, which contains lymphocytes, were removed carefully by aspiration.
Superoxide production by neutrophils was quantitated by monitoring superoxide-mediated reduction of cytochrome C (Clifford, supra, in which the reduction is manifest as an increase in absorbance at 550 nm at an extinction coefficient of 21000/M/cm). Measurements were carried out with a Beckman DU-50 spectrophotometer at 37° C. using ≈1×10^6 neutrophils per ml. The cells were allowed to equilibrate for 10 min with TMS, or other effectors, prior to addition of 1 μM of PMA.

## CCCCCCCCCCCCC/C=C/[C@@H](O)[C@H](CO)N(C)C [DMS, (4E)-N,N-dimethyl-D-erythro-sphingosine]
[1]; thrombin or ADP, compared with TMS
  inhibition of thrombin- or ADP-induced platelet aggregation: did not inhibit thrombin- or ADP-induced platelet aggregation as well as did TMS
[2]; PMA-induced, 10-20 μM
  inhibition of GMP-140 expression: strongly inhibited GMP-140 expression
[2]; thrombin-induced, FIG. 11A
  inhibition of GMP-140 expression: strongly inhibited thrombin-induced GMP-140 expression

## CCCCCCCCCCCCC/C=C/[C@@H](O)[C@@H](N)CO [SPN, sphingosine]
[3]; below 100 μM, Igarashi et al.
  PK-C inhibition: did not inhibit PK-C
[2]; PMA-induced, FIG. 11B
  inhibition of GMP-140 expression: Neither SPN nor H-7 showed inhibition
[2]; thrombin-induced, FIG. 11A
  inhibition of GMP-140 expression: no inhibition

## CCCCCCCCCCCCC/C=C/[C@@H](O)[C@H](CO)[N+](C)(C)C [TMS, N,N,N-trimethylsphingosine]
[4]; 15 μM, FIG. 13B
  inhibition of oxyradical production: inhibited immediately
[4]; 20 μM
  inhibition of superoxide production: completely abolishes superoxide production
[4]; Example 5
  neutrophil superoxide production: profound effect
[4]; dose-dependence, FIGS. 13A and 13B
  inhibition of superoxide production: inhibited by TMS in a dose-dependent manner
[1]
  inhibition of ATP secretion associated with platelet aggregation: inhibited strongly
  inhibition of platelet aggregation: inhibited strongly; also recorded: inhibited platelet aggregation in a dose-responsive fashion
[1]; exclusion of cytotoxicity on platelets
  ristocetin-induced platelet aggregation following incubation: normal ristocetin-induced aggregation
[2]; PMA-induced, 10-20 μM
  inhibition of GMP-140 expression: strongly inhibited GMP-140 expression
[2]; platelets preincubated with TMS
  GMP-140 expression: inhibits GMP-140 expression; also recorded: down-regulated or blocked
[2]; thrombin-induced, 10-20 μM
  inhibition of GMP-140 expression: strongly inhibited GMP-140 expression

## Calphostin C
[3]; in vitro, Tamaoki & Nakano
  concentration reported to inhibit protein kinase-C: 0.05 µM
[2]; thrombin-induced, 10-20 μM
  inhibition of GMP-140 expression: weak inhibition
